Reference: patent US20210085623A1, “Formulation” (Medherant Limited, priority 2017, published 2021)

Experiments:
[1] = Passive release of ibuprofen from pressure sensitive adhesive patch, diffusion cells; conditions: Nylon membrane, patch without excipients
Description: Prior to determination of active pharmaceutical ingredient (API) diffusion across skin mimicking membranes, a passive release of ibuprofen from the pressure sensitive adhesive must be verified. […] Such an experiment can be performed using non-rate-limiting membranes, for example porous silicone, Nylon or polytetrafluoroethylene (PTFE). In this study, Nylon was employed as the test model for passive release.
All further mentioned patches contain 10 wt % of API. Unless stated otherwise, 6 sample patches were analysed in parallel. […] Experimental conditions are listed below.
Patch components: Pressure sensitive adhesive, ibuprofen, […]. Patch thickness: 300 μm Membrane type: Nylon, pore size 0.45 μm Apparatus: diffusion cells Acceptor medium: mixture of pH 7.4 PBS/2-(2-ethoxyethoxy) ethanol (90/10 vol.) […]

[2] = Permeation of ibuprofen from patches through Strat-M membranes, diffusion cells; format: in vitro ADME; conditions: Strat-M membrane, patch without excipients
Description: In order to determine the necessity for further modification of ibuprofen patches with excipients, permeation rates of the API were observed using Strat-M membranes. Strat-M membranes are produced by Merck Millipore as a synthetic transdermal diffusion model to avoid animal or human skin testing. There is a correlation tool on a dedicated website allowing a comparison with human skin. Permeation profiles can vary depending on a drug, but it proves that Strat-M membranes can be employed as a reliable evaluation of any transdermal system in terms of human skin penetration. It must be said that penetration profiles in the case of human skin may differ from the aforementioned membrane, but allows predicting the efficacy of patches with certain reliability.
Patches tested in this study are from the same batch as employed in release experiments and were run under the same conditions. Permeation profiles and release profiles of ibuprofen through Strat-M membranes are depicted in FIGS. 1 and 2, respectively. […]

## CC(C)Cc1ccc(C(C)C(=O)O)cc1 (stereo not drawn) [ibuprofen]
[1]; 1 h
  Total Released Amount: 227.93 μg cm^−2
[1]; 2 h
  Total Released Amount: 438.23 μg cm^−2
[1]; 4 h
  Total Released Amount: 726.09 μg cm^−2
[1]; 6 h
  Total Released Amount: 967.49 μg cm^−2
[1]; 8 h
  Total Released Amount: 1124.13 μg cm^−2
[1]; 10 h
  Total Released Amount: 1257.46 μg cm^−2
[1]; 12 h
  Total Released Amount: 1397.34 μg cm^−2
[1]; 24 h
  Total Released Amount: 1650.21 μg cm^−2
[2]; 1 h
  Flux: 1.29 μg cm^−2 h^−1
  Total Amount: 1.291 μg cm^−2
[2]; 2 h
  Flux: 2.75 μg cm^−2 h^−1
  Total Amount: 4.044 μg cm^−2
[2]; 4 h
  Flux: 2.71 μg cm^−2 h^−1
  Total Amount: 9.466 μg cm^−2
[2]; 6 h
  Flux: 3.56 μg cm^−2 h^−1
  Total Amount: 16.595 μg cm^−2
[2]; 8 h
  Flux: 3.91 μg cm^−2 h^−1
  Total Amount: 24.424 μg cm^−2
[2]; 10 h
  Flux: 5.82 μg cm^−2 h^−1
  Total Amount: 36.066 μg cm^−2
[2]; 12 h
  Flux: 6.92 μg cm^−2 h^−1
  Total Amount: 49.915 μg cm^−2
[2]; 24 h
  Flux: 4.96 μg cm^−2 h^−1
  Total Amount: 109.467 μg cm^−2
